Data set [1] relates to influenza A virus strain A/WSN/33 (H1N1). The experiment in a line: microbe, parasite or virus in culture. It counts as cell-based. The following applies: for EC50: Influenza A virus, MDCK, 48 h.
In the next data set the test system is MDCK cells. The experiment in a line: Cytotoxicity assay (WST-8) with no viral infection. The following applies: 300 μg/mL, uninfected MDCK cells, Figure 3. In general terms: Formazan colour is commonly taken as a measure of viable cells.
A further data set deals with influenza virus. Format: cell-based. The following applies: 5 μg/mL, influenza virus-infected MDCK cells, data not shown.

Like-named read-outs stand apart in the source and are kept apart here.

With `O=C(/C=C/c1ccc(O)c(O)c1)O[C@@H]1C[C@](O)(C(=O)O)C[C@@H](OC(=O)/C=C/c2ccc(O)c(O)c2)[C@H]1OC(=O)/C=C/c1ccc(O)c(O)c1` [3,4,5-Tricaffeoylquinic acid, 3,4,5-tricaffeoylquinic acid], in data set [1], the “Cell survival rate of infected cells at 300 μg/mL” value (“Cell survival rate … at 300 μg/mL” for short) is “dropped to nearly zero”, the “Effect on cell survival of infected cells at 100 μg/mL” value (from here on “Effect … at 100 μg/mL”) was “effective”, the “Effect on cell survival rate of virus-infected cells (effective / ineffective)” value (“Effect … (effective / ineffective)” below) is listed as “effective” and the EC50 was 115 µM.
In the case of `O=C(/C=C/c1ccc(O)c(O)c1)O[C@@H]1[C@H](O)C[C@@](O)(C(=O)O)C[C@H]1OC(=O)/C=C/c1ccc(O)c(O)c1` [3,4-Dicaffeoylquinic acid], in data set [1], the “Effect … (effective / ineffective)” value is reported as “effective” and a half-maximal response (EC50) required 81.1 ± 2.9 µM. For the same compound, the EC50 in data set [1] (read-out: EC50 value on the cell survival) was 41.9 µg/mL.
`O=C(/C=C/c1ccc(O)c(O)c1)O[C@@H]1C[C@](O)(C(=O)O)C[C@@H](OC(=O)/C=C/c2ccc(O)c(O)c2)[C@H]1O` [3,5-Dicaffeoylquinic acid, 3,5-dicaffeoylquinic acid]: in data set [1], the “Effect … (effective / ineffective)” value was “effective” and the EC50 was 208 µM.
Regarding `O=C(/C=C/c1ccc(O)c(O)c1)O[C@H]1[C@H](O)C[C@](O)(C(=O)O)C[C@H]1OC(=O)/C=C/c1ccc(O)c(O)c1` [4,5-Dicaffeoylquinic acid, 4,5-dicaffeoylquinic acid], in data set [1], the “Effect … (effective / ineffective)” value is reported as “effective” and the EC50 worked out at 281 µM.
As to `O=C(O)/C=C/c1ccc(O)c(O)c1` [Caffeic acid, caffeic acid], in data set [1], the “Cell survival rate … at 300 μg/mL” value is “dropped to nearly zero”, the “Effect … at 100 μg/mL” value is recorded as “effective”, the “Effect … (effective / ineffective)” value was “effective” and the EC50 is 191 µM. Besides, in the data set with MDCK cells, the Cell toxicity result is on record as “exhibited cell toxicities”.
With `O=C(/C=C/c1ccc(O)c(O)c1)O[C@@H]1C[C@](O)(C(=O)O)C[C@@H](O)[C@H]1O` [Chlorogenic acid], in data set [1], the “Cell survival rate … at 300 μg/mL” value is listed as “dropped to nearly zero”, the “Effect … at 100 μg/mL” value is given as “effective”, the “Effect … (effective / ineffective)” value is “effective” and the EC50 amounted to 342 µM. The Cell toxicity result in the data set with MDCK cells is recorded as “exhibited cell toxicities”.
For `O=C(O)[C@]1(O)C[C@@H](O)[C@@H](O)[C@H](O)C1` [Quinic acid, quinic acid], in data set [1], the “Effect … (effective / ineffective)” value is “ineffective” and the EC50 is over 1560 µM.
In the case of `CC(C)=CCc1cc(/C=C/C(=O)O)cc(CC=C(C)C)c1O` [artepillin C], the “Effect … (effective / ineffective)” value in data set [1] was “did not have any cell surviving activity”.
`CC(C)=CCc1cc(/C=C/C(=O)O)ccc1O` [drupanin]: in data set [1], the “Effect … (effective / ineffective)” value is recorded as “did not have any cell surviving activity”.
On to `COc1ccc(-c2oc3cc(O)cc(O)c3c(=O)c2O)cc1` [kemferide], for which the “Effect … (effective / ineffective)” value in data set [1] is reported as “did not have any cell surviving activity”.
As for `O=C(O)/C=C/c1ccc(O)cc1` [p-coumaric acid], the “Effect … (effective / ineffective)” value in data set [1] is “did not have any cell surviving activity”.
As to `NC(=O)c1ncn([C@@H]2O[C@H](CO)[C@@H](O)[C@H]2O)n1` [ribavirin], in the data set on influenza virus, the “Quantity of mRNA for HA relative to mRNA for GAPDH” value is “less than 10%”.

The term EC50 denotes the concentration at which the effect is half-maximal.

Values taken from paper PMC3057164, “Caffeoylquinic Acids Are Major Constituents with Potent Anti-Influenza Effects in Brazilian Green Propolis Water Extract” (Evidence-based Complementary and Alternative Medicine : eCAM, 2011).
